What all share (format): in vivo
One assay relates to Lucilia cuprina. The assay is described as follows: Lucilia cuprina test. The conditions noted are these: 48 h, application rate 100 ppm, L1 larvae, kill after 2 days, read-out: efficacy. The gist of the method: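 About 20 L1 larvae of Lucilia cuprina placed on minced horsemeat containing compound (DMSO stock diluted in water to test concentration). Kill (%) scored after 2 days; 100% = all larvae dead, 0% = none dead.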

A further assay relates to Boophilus microplus. The assay is described as follows: Boophilus microplus injection test. The conditions noted are these: application rate 20 μg/animal, injected; laying of fertile eggs assessed after 7 days. How it is done:
Solvent: dimethyl sulfoxide To produce a suitable active ingredient formulation, 10 mg of active ingredient are mixed with 0.5 ml of solvent and the concentrate is diluted to the desired concentration with solvent. 1 μl of the active ingredient solution is injected into the abdomen of 5 engorged adult female cattle ticks (Boophilus microplus). The animals are transferred into dishes and kept in a climate-controlled room. Efficacy is assessed after 7 days by laying of fertile eggs. Eggs which are not visibly fertile are stored in a climate-controlled cabinet until the larvae hatch after about 42 days. An efficacy of 100% means that none of the ticks has laid any fertile eggs; 0% means that all the eggs are fertile.

In assay [1] the test system is Myzus persicae. Description: Myzus persicae oral test. To be noted: 120 h, application rate 4 ppm, after 5 days, read-out: efficacy. In a few lines: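 Compound formulation diluted with IPL41 insect medium (33%+15% sugar) and sealed under parafilm; mixed-population aphids feed through the membrane from a second plate. Mortality scored after 5 days as % efficacy (100% = all aphids killed, 0% = none).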

Assay [2] deals with Myzus persicae. The assay is described as follows: Myzus persicae spray test. To be noted: foliar, 120 h, application rate 100 g/ha, Chinese cabbage leaf discs, after 5 days, read-out: efficacy. In a few lines: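 Chinese cabbage leaf discs infested with all aphid stages sprayed with compound formulated in emulsifier-containing water (1000 ppm emulsifier). Efficacy (% aphids killed; 100% = all killed) determined after 5 days.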

The test system of assay [3] is Ctenocephalides felis. Description: Ctenocephalides felis in vitro contact test with adult cat fleas. To be noted: application rate 5 μg/cm^2 (=500 g/ha), adult cat fleas dead or moribund after 48 h, read-out: efficacy. The procedure:
For the coating of the test tubes, 9 mg of active ingredient are first dissolved in 1 ml of acetone p.a. and then diluted to the desired concentration with acetone p.a. 250 μl of the solution are distributed homogeneously on the inner walls and the base of a 25 ml glass tube by turning and rocking on an orbital shaker (rocking rotation at 30 rpm for 2 h). With 900 ppm of active ingredient solution and internal surface area 44.7 cm^2, given homogeneous distribution, an area-based dose of 5 μg/cm^2 is achieved. After the solvent has evaporated off, the tubes are populated with 5-10 adult cat fleas (Ctenocephalides felis), sealed with a perforated plastic lid and incubated in a horizontal position at room temperature and ambient humidity. After 48 h, efficacy is determined. To this end, the tubes are stood upright and the fleas are knocked to the base of the tube. Fleas which remain motionless at the base or move in an uncoordinated manner are considered to be dead or moribund. […] 100% efficacy means that all the fleas were dead or moribund. 0% efficacy means that no fleas were harmed.

A further assay has as its system Musca domestica. The assay is described as follows: Musca domestica test. The conditions noted are these: application rate 100 ppm; adult houseflies, kill after 2 days. How it is done: Solvent: dimethyl sulfoxide To produce a suitable active ingredient formulation, 10 mg of active ingredient are mixed with 0.5 ml of dimethyl sulfoxide, and the concentrate is diluted with water to the desired concentration. Vessels containing a sponge treated with sugar solution and the desired concentration of active ingredient formulation are populated with 10 adult houseflies (Musca domestica). After 2 days, the kill in % is determined. 100% means that all of the flies have been killed; 0% means that none of the flies have been killed.

A further assay concerns Spodoptera frugiperda. The assay is described as follows: Spodoptera frugiperda spray test. The conditions noted are these: foliar, 168 h, application rate 100 g/ha, maize leaf discs, caterpillars, after 7 days, read-out: efficacy. The gist of the method: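 Maize leaf discs sprayed with compound formulated in solvent plus water with 1000 ppm emulsifier, dried, then infested with fall armyworm caterpillars. Mortality scored after 7 days as % efficacy (100% = all caterpillars killed, 0% = none).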

Assay [4] has as its system Ctenocephalides felis. The assay is described as follows: Ctenocephalides felis oral test. To be noted: 48 h, application rate 100 ppm in citrated cattle blood, kill after 2 days, read-out: efficacy. In a few lines: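 About 20 unfed adult cat fleas fed through a parafilm membrane on citrated cattle blood containing compound (DMSO stock diluted in blood to the desired concentration). Kill (%) determined after 2 days; 100% = all fleas dead, 0% = none.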

The test system of another assay is Phaedon cochleariae. The assay is described as follows: Phaedon cochleariae spray test. To be noted: 168 h, application rate 100 g/ha, larvae, after 7 days, read-out: efficacy. The gist of the method: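 Chinese cabbage leaf discs sprayed with compound formulated in solvent and water containing 1000 ppm emulsifier. Once dry, discs were populated with mustard beetle larvae. Percent kill scored after 7 days, 100% meaning all larvae dead and 0% none.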

With `CCS(=O)(=O)c1c(-c2nc3cc(C(F)(F)F)ncc3n2C)nc(-c2cccnc2)n1C` [Example I-016], the pest or weed control at 100 ppm with Lucilia cuprina was 100%. Further, the efficacy in the assay with Boophilus microplus came to 90%. Further, the pest or weed control at 4 ppm with Myzus persicae [1] was determined as 100%. Also, the pest or weed control at 100 g/ha with Myzus persicae [2] was found to be 100%.

In the case of `CCS(=O)(=O)c1c(-c2nc3cc(C(F)(F)F)ncc3n2C)nc(-c2ccc(F)nc2)n1C` [Example I-019, 2-[5-(Ethylsulfonyl)-2-(6-fluoropyridin-3-yl)-1-methyl-1H-imidazol-4-yl]-3-methyl-6-(trifluoromethyl)-3H-imidazo[4,5-c]pyridine], the pest or weed control at 100 ppm in the assay with Lucilia cuprina is 100%; in the assay with Ctenocephalides felis [4] it was 95%. Besides, the pest or weed control at 5 µg/cm2, 500 g/ha with Ctenocephalides felis [3] is 100%. This molecule displayed an efficacy with Musca domestica of 100%. In the assay with Myzus persicae [1], the pest or weed control at 4 ppm is 100%. Moreover, the pest or weed control at 100 g/ha in the assay on Spodoptera frugiperda, in the assay with Myzus persicae [2] and in the assay on Phaedon cochleariae was 100% each time.

For `CCNC(=O)c1nc(-c2nc3cc(C(F)(F)F)ncc3n2C)c(S(=O)(=O)CC)n1C` [Example I-041], the efficacy in the assay on Boophilus microplus came out at 100%. Also, the pest or weed control at 4 ppm with Myzus persicae [1] was determined as 100%. For the same molecule, the pest or weed control at 100 g/ha amounted to 90% in the assay with Myzus persicae [2] and 100% in the assay on Phaedon cochleariae.

For the origin of these results see patent US11083199B2, “Heterocycle derivatives as pesticides” (Bayer Aktiengesellschaft, priority 2017, dated 2021).
